This is an account of results in the supplement of paper PMC11919725.

In assay [1] the test system is Jurkat. Description: cytotoxicity relative to DMSO, 18 h (ratio); higher = less cell death (drugs called cytotoxic fall below 1). In outline: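 Fluorescence was imaged at ×10, five images per well, every hour for 3 h, in 96-well plates holding 100 µl of treated cell suspension and IncuCyte Cytotox Dye at 250 nM final. Before plating, Jurkat cells or primary CD4+/CD8+ T cells (naive, or activated 48 h with CD3/CD28 Dynabeads) had been treated for 18 h with compound across 1 nM–10 µM in log10 steps at 37 °C, 5% CO2. Cytotoxicity values were based on these IncuCyte signals after confluency correction and normalisation to the mean of control wells.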

For assay [2], the system named is Jurkat. Description: confluency relative to DMSO, 18 h (ratio); higher = more viable. Put shortly: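 Cells (Jurkat, or primary CD4+/CD8+ T cells either naive or stimulated 48 h with CD3/CD28 Dynabeads) were incubated with compound for 18 h at 37 °C, 5% CO2, across 1 nM–10 µM in log10 steps. Each 100 µl suspension was then placed in a 96-well plate with IncuCyte Cytotox Dye and alamarBlue and imaged by phase contrast at ×10, five images per well, hourly over 3 h. Confluency values come from the Basic Analyzer and are relative to the mean of the control wells.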

Assay [3] concerns Jurkat. Description: metabolic activity relative to DMSO, 18 h (ratio); higher = more viable. Put shortly:
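Compound was added at 1 nM–10 µM (log10 steps) for 18 h at 37 °C, 5% CO2 to Jurkat cells or to primary CD4+/CD8+ T cells that were naive or had been activated 48 h with CD3/CD28 Dynabeads. After alamarBlue was added to 10% v/v final, fluorescence (excitation 544 nm, emission 584 nm) was measured 3.5 h later. Values for metabolic activity are normalised to the mean of vehicle controls.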

Turning to `COCCN1CCN(Cc2ccc(-c3n[nH]c4c3C(=O)c3c(NC(=O)NN5CCOCC5)cccc3-4)cc2)CC1.Cl.Cl`, the cytotoxicity stood at 0.969 in assay [1] (1 nM); 0.715 in assay [1] (10 nM); 0.581 in assay [1] (100 nM); 0.639 in assay [1] (1000 nM); 0.62 in assay [1] (10000 nM). For the same molecule, the confluency was found to be 0.976 in assay [2] (1 nM); 0.788 in assay [2] (10 nM); 0.898 in assay [2] (100 nM); 0.951 in assay [2] (1000 nM); 0.909 in assay [2] (10000 nM). Also, the metabolic activity in assay [3] (1 nM) worked out at 1.05; in assay [3] (10 nM), 0.968; in assay [3] (100 nM) it was 0.223; in assay [3] (1000 nM), 0.221; in assay [3] (10000 nM), 0.198.
On to `Cc1sc2c(c1C)C(c1ccc(Cl)cc1)=NC(CC(=O)OC(C)(C)C)c1nnc(C)n1-2` (single isomer, unassigned; (+)) [(+)-JQ-1], for which the cytotoxicity turned out to be 1.09 in assay [1] (1 nM); 0.985 in assay [1] (10 nM); 1.22 in assay [1] (100 nM); 1.07 in assay [1] (1000 nM); 0.995 in assay [1] (10000 nM). Besides, the confluency in assay [2] (1 nM) came to 1.02; in assay [2] (10 nM), 0.962; in assay [2] (100 nM) it was 1.02; in assay [2] (1000 nM) it was 1.01; in assay [2] (10000 nM), 1.02. Also, the metabolic activity is 1.05 in assay [3] (1 nM); 0.989 in assay [3] (10 nM); 1.13 in assay [3] (100 nM); 1.1 in assay [3] (1000 nM); 0.987 in assay [3] (10000 nM).
In the case of `Nc1ncn(C2OC(CO)C(O)C2O)c(=O)n1` (stereo not given) [5-Azacytidine], the cytotoxicity in assay [1] (1 nM) is 0.896; in assay [1] (10 nM) it was 0.89; in assay [1] (100 nM) it was 1.12; in assay [1] (1000 nM), 1; in assay [1] (10000 nM), 1.12. For the same molecule, the confluency in assay [2] (1 nM) turned out to be 0.777; in assay [2] (10 nM) it was 0.792; in assay [2] (100 nM) it was 0.976; in assay [2] (1000 nM), 0.919; in assay [2] (10000 nM) it was 0.961. Also, the metabolic activity in assay [3] (1 nM) was 1.05; in assay [3] (10 nM) it was 1.03; in assay [3] (100 nM), 1.03; in assay [3] (1000 nM), 0.994; in assay [3] (10000 nM) it was 0.344.
`O=c1[nH]cc(F)c(=O)[nH]1` [5-Fluorouracil]: the cytotoxicity was found to be 0.997 in assay [1] (1 nM); 0.931 in assay [1] (10 nM); 0.995 in assay [1] (100 nM); 0.946 in assay [1] (1000 nM); 0.985 in assay [1] (10000 nM). The confluency in assay [2] (1 nM) came out at 1; in assay [2] (10 nM), 0.981; in assay [2] (100 nM), 0.992; in assay [2] (1000 nM) it was 0.978; in assay [2] (10000 nM) it was 0.996. Besides, the metabolic activity in assay [3] (1 nM) was 1.03; in assay [3] (10 nM) it was 0.913; in assay [3] (100 nM), 0.967; in assay [3] (1000 nM) it was 0.999; in assay [3] (10000 nM) it was 0.971.
`O=C(NO)c1cnc(NC2(c3ccccc3)CC2)nc1` [ACY738]: the cytotoxicity was 0.969 in assay [1] (1 nM); 0.95 in assay [1] (10 nM); 1.15 in assay [1] (100 nM); 1.05 in assay [1] (1000 nM); 0.982 in assay [1] (10000 nM). Besides, the confluency in assay [2] (1 nM) is 1.01; in assay [2] (10 nM) it was 0.994; in assay [2] (100 nM) it was 1.03; in assay [2] (1000 nM), 0.995; in assay [2] (10000 nM), 0.999. Further, the metabolic activity in assay [3] (1 nM) is 0.936; in assay [3] (10 nM), 0.962; in assay [3] (100 nM), 1.1; in assay [3] (1000 nM), 0.862; in assay [3] (10000 nM), 0.713.
With `Cc1csc(-c2nnc(Nc3ccc(Oc4ncccc4-c4ccnc(N)n4)cc3)c3ccccc23)c1` [AMG-900], the cytotoxicity in assay [1] (1 nM) was 0.919; in assay [1] (10 nM), 0.897; in assay [1] (100 nM), 0.856; in assay [1] (1000 nM), 0.848; in assay [1] (10000 nM), 0.823. The confluency in assay [2] (1 nM) was found to be 0.926; in assay [2] (10 nM) it was 0.91; in assay [2] (100 nM), 0.92; in assay [2] (1000 nM) it was 0.874; in assay [2] (10000 nM) it was 0.878. Also, the metabolic activity in assay [3] (1 nM) was 0.99; in assay [3] (10 nM) it was 0.973; in assay [3] (100 nM) it was 1.02; in assay [3] (1000 nM), 0.871; in assay [3] (10000 nM), 0.865.
